Data on 23 molecules can be found in US10981893B2, “Therapeutic inhibitory compounds” (Attune Pharmaceuticals, Inc., priority 2015, dated 2021).

The structures appear in SMILES notation.

In one test the target is human Plasma Kallikrein (Homo sapiens (Human), UniProt P03952). Briefly: In vitro enzyme inhibition of human plasma kallikrein (Pro-Phe-Arg-AMC cleavage). Format: biochemical. The conditions noted are these: PFR-AMC substrate, 37° C., read-out: hPK IC50. As to the method:
The ability of the compounds disclosed herein to inhibit human plasma kallikrein activity was quantified according to the procedures below.
A 10 mM solution of the test compound was made in DMSO. This solution was serially diluted 1:5 in DMSO to yield 2000, 400, 80, 16, 3.2, 0.64, 0.128, 0.0256 and 0.00512 μM compound test solutions. A control tube containing only DMSO is included. 16 μL of each compound test solution was combined with 384 μL of assay buffer (50 mM Tris-HCl pH 7.5, 150 mM NaCl, 0.01% Triton X-100) to yield a “4× test compound buffer stock”.
Separately, a 40 nM solution of human Plasma Kallikrein (Abcam) and a 93.6 μM solution Pro-Phe-Arg-AMC (Bachem) were made using assay buffer. These solutions are hereby refereed to as 4×hPK and 2×PFR-AMC, respectively.
60 μL of each 4× test compound buffer stock was combined with 60 μL of 4× hPK to yield 120 μL of “2× test compound buffer stock/2×hPK”. 50 μL was removed from this mixture and placed into duplicate wells on a Microfluor 1 Black U-bottom microtiter plate (Thermo Scientific). This plate was incubated for 5 minutes at 37° C. To each well, 50 μL of pre-warmed 2×PFR-AMC was added to start the enzymatic reaction. Cleavage of PFR-AMC was monitored in a Biotek Synergy H4 reader set at 37° C. Readings are taken every 43 seconds for 1 hour. The highest mean velocity over 20 reads (˜15 minutes) is used to calculate the IC50. The IC50 is calculated using the Gen5 (Biotek Instruments).
The ability of the compounds in Table 1 to inhibit human plasma kallikrein activity was determined and the data is shown in Table 3.

The target of test [1] is kallikrein in human plasma (Homo sapiens (Human), UniProt P03952). Briefly: In vitro cellular assay / contact assay: kallikrein activity in ellagic acid-activated human plasma (Z-FR-2-AMC substrate). The conditions noted are these: human plasma activated with ellagic acid, 37° C. Format: biochemical. As to the method: The ability of the compounds disclosed herein to inhibit cellular kallikrein activity was quantified and the respective EC50 value was determined.
Plasma kallikrein inhibitor C1NH (Athens Research & Technology, Cat #16-16-031509); Ellagic acid (Sigma, E2250); Substrate Z—FR-2-AMC (GL Biochem, Cat #55352); Nunc™ 96-Well Polypropylene MicroWell™ Plates (Nunc, Cat #267342)
All dilutions were prepared in an assay buffer comprising 50 mM Tris-HCl pH 7.2, 150 mM NaCl, and 0.01% Triton X-100.
Four fold serial dilutions were prepared from a 107.53 μM plasma kallikrein inhibitor C1NH stock solution, to yield ten solutions with concentrations between 20 μM and […]. Similarly, four fold serial dilutions were prepared from 10 mM stock solutions of various test compounds, to yield ten solutions with concentrations between 4 mM and 0.015 μM. The ten solutions of the test compounds, prepared by serial dilution, were further diluted 50-fold in the assay buffer.
Human plasma is thawed on ice and centrifuged for 15 min at 4° C. to remove platelets. A 1 mM stock solution of ellagic acid is diluted to 8 μM and mixed with human plasma, after removing platelets, at a ratio of 1:0.8. The mixture of human plasma and ellagic acid was further diluted 32-fold in the assay buffer, to yield the final mixture for use in the inhibition assay.
A 22.5 μL volume of the final mixture of human plasma and ellagic acid was added to a 96-well microwell plate and the plate was incubated for 15 min at 37° C.
The test compounds at various concentrations, also prepared by serial dilutions as described above, are added to the test wells. The volume of test compound added to each test well was 12.5 μL, to yield final concentrations of 20 μM, 5 μM, 1.25 μM, 312.5 nM, 78.125 nM, 19.531 nM, 4.883 nM, 1.221 nM, 0.305 nM, and 0.076 nM. Each test compound concentration was tested in duplicates.
In addition to the inhibitor control and test wells, the 96 well assay plate includes positive control wells which contained the mixture of human plasma and ellagic acid without C1NH inhibitor or test compounds, and background wells which contained neither the mixture of human plasma and ellagic acid nor the test compounds. The total volume of liquid in positive control and background wells was brought up to 35 μL, using the assay buffer.
The assay plate containing C1NH inhibitors and test compounds mixed with human plasma and ellagic acid and appropriate controls was incubated at 37° C. for 5 min. A 10 mM stock solution of substrate Z—FR-2-AMC was diluted to 133.2 μM in the assay buffer, and 15 μL of the diluted substrate was added to each well, to yield a final substrate concentration of 40 μM in each well. […]
The enzyme reaction was quantified by immediate kinetic reading of the assay plate using excitation/emission wavelengths of 330 nm/440 nm respectively. Fluorescence intensity was recorded for 60 min, using a time interval of 43 sec.
The inhibition activity of the test compounds were evaluated using the IC50 values, calculated according to the dose-response curve of the test compounds, fitted using the “log(inhibitor)-response(variable slope)” equation in GraphPadPrism software (GraphPad Software, Inc.).
The percentage inhibition was calculated using the following equation:
[formula] where, Mean(BG) is the average value of the fluorescence intensity of the background wells and Mean(PC) is the average value of the fluorescence intensity of the positive control wells. […]

Sequence of human Plasma Kallikrein (P03952 391-638 limits assumed): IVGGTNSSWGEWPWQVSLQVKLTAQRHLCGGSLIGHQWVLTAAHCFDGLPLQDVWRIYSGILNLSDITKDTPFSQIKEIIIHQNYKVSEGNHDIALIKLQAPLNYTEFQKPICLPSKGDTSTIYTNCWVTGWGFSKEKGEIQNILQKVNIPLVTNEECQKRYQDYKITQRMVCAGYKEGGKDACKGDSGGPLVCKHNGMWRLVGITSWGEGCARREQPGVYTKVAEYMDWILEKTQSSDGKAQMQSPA
Sequence of human Plasma Kallikrein (P03952 20-390 partner limits assumed): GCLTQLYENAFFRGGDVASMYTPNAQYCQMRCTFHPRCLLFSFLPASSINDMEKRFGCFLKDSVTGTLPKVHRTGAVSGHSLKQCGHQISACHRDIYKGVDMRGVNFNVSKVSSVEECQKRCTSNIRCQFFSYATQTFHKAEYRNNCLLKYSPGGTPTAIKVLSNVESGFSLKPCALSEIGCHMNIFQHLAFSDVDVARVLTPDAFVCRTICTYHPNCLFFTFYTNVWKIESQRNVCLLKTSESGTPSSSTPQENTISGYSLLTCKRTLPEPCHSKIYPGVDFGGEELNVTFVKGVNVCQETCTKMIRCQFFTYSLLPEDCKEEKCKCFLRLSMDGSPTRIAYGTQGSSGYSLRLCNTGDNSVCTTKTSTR
Sequence of kallikrein in human plasma (P03952 391-638 limits assumed): as the sequence (P03952 391-638 limits assumed) above
Sequence of kallikrein in human plasma (P03952 20-390 partner limits assumed): as the sequence (P03952 20-390 partner limits assumed) above

Regarding `O=C(NCc1n[nH]c2ccc(Cl)cc12)c1cncc(Cc2ccccc2C(F)(F)F)c1` [Example 1, N-((5-chloro-1H-indazol-3-yl)methyl)-5-(2-(trifluoromethyl)benzyl)nicotinamide], the IC50 at human Plasma Kallikrein was in the range of 1000 to 10000 nM.

`N#Cc1ccc(Cc2cncc(C(=O)NCc3n[nH]c4ccc(Cl)cc34)c2)cc1` [Example 2, N-((5-chloro-1H-indazol-3-yl)methyl)-5-(4-cyanobenzyl)nicotinamide]: the half-maximal inhibitory concentration (IC50) at human Plasma Kallikrein fell in the range of 1000 to 10000 nM. Turning to `O=C(NCc1n[nH]c2ccc(Cl)cc12)c1cncc(Cc2ccc(C(F)(F)F)cc2)c1` [Example 3, N-((5-chloro-1H-indazol-3-yl)methyl)-5-(4-(trifluoromethyl)benzyl)nicotinamide], on human Plasma Kallikrein, the IC50 was in the range of 1000 to 10000 nM. On the same count and under the same terms, next, `Cc1ccc(Cc2cncc(C(=O)NCc3n[nH]c4ccc(Cl)cc34)c2)cc1` [Example 4, N-((5-chloro-1H-indazol-3-yl)methyl)-5-(4-methylbenzyl)nicotinamide]: 1000 to 10000 nM; `O=C(NCc1n[nH]c2ccc(Cl)cc12)c1cncc(Cc2ccccc2)c1` [Example 5, 5-benzyl-N-((5-chloro-1H-indazol-3-yl)methyl)nicotinamide]: 1000 to 10000 nM. With `NC(=O)c1ccccc1Cc1cncc(C(=O)NCc2n[nH]c3ccc(Cl)cc23)c1` [Example 6, 5-(2-carbamoylbenzyl)-N-((5-chloro-1H-indazol-3-yl)methyl)nicotinamide], the IC50 at human Plasma Kallikrein is 1000 to 10000 nM. Take `N#Cc1cnn(Cc2cncc(C(=O)NCc3cc4c(Cl)c[nH]c4cc3F)c2)c1` [Example 7, N-((3-chloro-6-fluoro-1H-indol-5-yl)methyl)-5-((4-cyano-1H-pyrazol-1-yl)methyl)nicotinamide]: the IC50 at human Plasma Kallikrein was 1000 to 10000 nM. For `NC(=O)c1cnn(Cc2cncc(C(=O)NCc3cc4c(Cl)c[nH]c4cc3F)c2)c1` [Example 8, 5-((4-carbamoyl-1H-pyrazol-1-yl)methyl)-N-((3-chloro-6-fluoro-1H-indol-5-yl)methyl)nicotinamide], at human Plasma Kallikrein, the IC50 was > 10000 nM. `CC(=O)N(Cc1ccn(Cc2cc(C(=O)NCc3cc4c(Cl)c[nH]c4cc3F)ccn2)n1)C1CC1` [Example 9, N-((3-chloro-6-fluoro-1H-indol-5-yl)methyl)-2-((3-((N-cyclopropylacetamido)methyl)-1H-pyrazol-1-yl)methyl)isonicotinamide]: the IC50 on human Plasma Kallikrein was > 10000 nM. The same measure, in the same setting: then `NC(=O)C(NC(=O)c1cncc(Cc2ccc(Cn3ccccc3=O)cc2)c1)c1n[nH]c2ccc(Cl)cc12` (stereo not drawn) [Example 11, N-(2-amino-1-(5-chloro-1H-indazol-3-yl)-2-oxoethyl)-5-(4-((2-oxopyridin-1(2H)-yl)methyl)benzyl)nicotinamide], with 1000 to 10000 nM; and `O=C(NC(C(=O)O)c1n[nH]c2ccc(Cl)cc12)c1cncc(Cc2ccc(Cn3ccccc3=O)cc2)c1` (stereo not drawn) [Example 12, 2-(5-chloro-1H-indazol-3-yl)-2-(5-(4-((2-oxopyridin-1(2H)-yl)methyl)benzyl)nicotinamido)acetic acid], with 1000 to 10000 nM; and `NC(=O)c1ccc(CNC(=O)c2cncc(Cc3ccc(Cn4ccccc4=O)cc3)c2)cc1` [Example 14, N-(4-carbamoylbenzyl)-5-(4-((2-oxopyridin-1(2H)-yl)methyl)benzyl)nicotinamide], with 1000 to 10000 nM.

As to `O=C(NCc1ccc(Cl)cc1)c1cncc(Cc2ccc(Cn3ccccc3=O)cc2)c1` [Example 15, N-(4-chlorobenzyl)-5-(4-((2-oxopyridin-1(2H)-yl)methyl)benzyl)nicotinamide], the concentration for half-maximal inhibition (IC50) on human Plasma Kallikrein lay within 1000 to 10000 nM.

Consider `COc1ccc(CNC(=O)c2cncc(Cc3ccc(Cn4ccccc4=O)cc3)c2)cc1` [Example 16, N-(4-methoxybenzyl)-5-(4-((2-oxopyridin-1(2H)-yl)methyl)benzyl)nicotinamide], for which the IC50 at human Plasma Kallikrein is 1000 to 10000 nM. With `O=C(NCc1cc2c(Cl)c[nH]c2cc1F)c1ccc(=O)n(CC23CC(Cn4ccccc4=O)(C2)C3)c1` [Example 17, N-((3-chloro-6-fluoro-1H-indol-5-yl)methyl)-6-oxo-1-((3-((2-oxopyridin-1(2H)-yl)methyl)bicyclo[1.1.1]pentan-1-yl)methyl)-1,6-dihydropyridine-3-carboxamide], on human Plasma Kallikrein, the concentration for half-maximal inhibition (IC50) was in the range of 1000 to 10000 nM. On the same count and under the same terms, next, `O=C(NCc1ccc(Br)c(F)c1)c1ccnc(Cc2ccc(Cn3ccccc3=O)cc2)c1` [Example 18, N-(4-bromo-3-fluorobenzyl)-2-(4-((2-oxopyridin-1(2H)-yl)methyl)benzyl)isonicotinamide]: > 10000 nM.

In the case of `Cc1cc(C#N)ccc1CNC(=O)c1ccnc(Cc2ccc(Cn3ccccc3=O)cc2)c1` [Example 19, N-(4-cyano-2-methylbenzyl)-2-(4-((2-oxopyridin-1(2H)-yl)methyl)benzyl)isonicotinamide], the IC50 on human Plasma Kallikrein is > 10000 nM. With `CS(=O)(=O)c1cc(Cc2cc(C(=O)NCc3ccc4c(N)noc4c3)ccn2)ccc1Cn1ccccc1=O` [Example 20, N-((3-aminobenzo[d]isoxazol-6-yl)methyl)-2-(3-(methylsulfonyl)-4-((2-oxopyridin-1(2H)-yl)methyl)benzyl)isonicotinamide], the IC50 at human Plasma Kallikrein was in the range of 100 to 1000 nM. Turning to `Cc1cc(N)nc(C)c1CNC(=O)c1ccc(=O)n(Cc2ccc3ncc(Cl)cc3c2)c1` [Example 21, N-((6-amino-2,4-dimethylpyridin-3-yl)methyl)-1-((3-chloroquinolin-6-yl)methyl)-6-oxo-1,6-dihydropyridine-3-carboxamide], the IC50 on human Plasma Kallikrein is ≤ 100 nM. In addition, in test [1], the EC50 is ≤ 100 nM. Take `Cc1cc(N)nc(C)c1CNC(=O)c1ccnc(Cc2ccc3ncc(Cl)cc3c2)n1` [Example 24, N-((6-amino-2,4-dimethylpyridin-3-yl)methyl)-2-((3-chloroquinolin-6-yl)methyl)pyrimidine-4-carboxamide]: the IC50 on human Plasma Kallikrein is ≤ 100 nM.

Regarding `CS(=O)(=O)c1cc(Cc2cc(C(=O)NCc3ccc(N)nc3C(F)(F)F)ccn2)ccc1Cn1ccccc1=O` [Example 26, N-((6-amino-2-(trifluoromethyl)pyridin-3-yl)methyl)-2-(3-(methylsulfonyl)-4-((2-oxopyridin-1(2H)-yl)methyl)benzyl)isonicotinamide], the IC50 on human Plasma Kallikrein is 1000 to 10000 nM. With `CS(=O)(=O)c1cc(Cc2cc(C(=O)NCc3cnc(N)cc3C(F)(F)F)ccn2)ccc1Cn1ccccc1=O` [Example 27, N-((6-amino-4-(trifluoromethyl)pyridin-3-yl)methyl)-2-(3-(methylsulfonyl)-4-((2-oxopyridin-1(2H)-yl)methyl)benzyl)isonicotinamide], the IC50 on human Plasma Kallikrein lay within 100 to 1000 nM.

With `CS(=O)(=O)c1cc(Cc2cc(C(=O)NCc3n[nH]c4ccc(Cl)cc34)ccn2)ccc1Cn1ccccc1=O` [Example 30, N-((5-chloro-1H-indazol-3-yl)methyl)-2-(3-(methylsulfonyl)-4-((2-oxopyridin-1(2H)-yl)methyl)benzyl)isonicotinamide], at human Plasma Kallikrein, the IC50 was ≤ 100 nM.

One may read the IC50 as the point on the concentration scale where inhibition reaches its midpoint. For orientation: EC50 means the concentration needed to bring the measured effect to its halfway point. A higher EC50 goes with lower potency in that assay.
